Experimental data reported in PubChem BioAssay (NCI).
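A five-concentration, 48-hour dose response in 96-well plates underlies each endpoint, interpolated linearly between surrounding concentrations. Here, GI50 denotes the concentration required for 50% inhibition of growth. At the TGI there is no net growth.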

Legend:
Assay in all cases: DTP human tumour cell line panel, 48 h
786-0 renal = test system: 786-0 renal
A498 renal = test system: A498 renal
A549 NSCLC = test system: A549 NSCLC
ACHN renal = test system: ACHN renal
BT-549 breast = test system: BT-549 breast
CAKI-1 renal = test system: CAKI-1 renal
CCRF-CEM leukemia = test system: CCRF-CEM leukemia
COLO 205 colon = test system: COLO 205 colon
DU-145 prostate = test system: DU-145 prostate
EKVX NSCLC = test system: EKVX NSCLC
HCC-2998 colon = test system: HCC-2998 colon
HCT-116 colon = test system: HCT-116 colon
HCT-15 colon = test system: HCT-15 colon
HL-60(TB) leukemia = test system: HL-60(TB) leukemia
HOP-62 NSCLC = test system: HOP-62 NSCLC
HOP-92 NSCLC = test system: HOP-92 NSCLC
HS 578T breast = test system: HS 578T breast
HT29 colon = test system: HT29 colon
IGROV1 ovarian = test system: IGROV1 ovarian
K-562 leukemia = test system: K-562 leukemia
KM12 colon = test system: KM12 colon
MCF7 breast = test system: MCF7 breast
MDA-MB-231 breast = test system: MDA-MB-231 breast
MDA-MB-435 = test system: MDA-MB-435
MOLT-4 leukemia = test system: MOLT-4 leukemia
NCI-H226 lung = test system: NCI-H226 lung
NCI-H460 lung = test system: NCI-H460 lung
NCI/ADR-RES ovarian = test system: NCI/ADR-RES ovarian
OVCAR-3 ovarian = test system: OVCAR-3 ovarian
OVCAR-4 ovarian = test system: OVCAR-4 ovarian
OVCAR-5 ovarian = test system: OVCAR-5 ovarian
OVCAR-8 ovarian = test system: OVCAR-8 ovarian
PC-3 prostate = test system: PC-3 prostate
RPMI-8226 leukemia = test system: RPMI-8226 leukemia
RXF 393 renal = test system: RXF 393 renal
SF-268 CNS = test system: SF-268 CNS
SF-295 CNS = test system: SF-295 CNS
SF-539 CNS = test system: SF-539 CNS
SK-MEL-2 melanoma = test system: SK-MEL-2 melanoma
SK-MEL-28 melanoma = test system: SK-MEL-28 melanoma
SK-OV-3 ovarian = test system: SK-OV-3 ovarian
SNB-19 CNS = test system: SNB-19 CNS
SNB-75 CNS = test system: SNB-75 CNS
SR leukemia = test system: SR leukemia
T-47D breast = test system: T-47D breast
TK-10 renal = test system: TK-10 renal
U251 CNS = test system: U251 CNS
UACC-257 melanoma = test system: UACC-257 melanoma
UACC-62 melanoma = test system: UACC-62 melanoma
UO-31 renal = test system: UO-31 renal

Q: How did the GI50 (786-0 renal) turn out when `Fc1ccc(-c2cc3nc(C(Cl)Cl)nc(-c4ccccc4)n3n2)cc1` was run?
A: 6330 nM

Q: What about the TGI (786-0 renal) of the same compound?
A: > 100000 nM

Q: And the GI50 (A498 renal)?
A: 1810 nM

Q: What about the TGI (A498 renal) of the same compound?
A: 3550 nM

Q: And the GI50 (A549 NSCLC)?
A: 1100 nM

Q: What about the TGI (A549 NSCLC) of the same compound?
A: 2600 nM

Q: What about the GI50 (ACHN renal) of the same compound?
A: 777 nM

Q: What about the TGI (ACHN renal) of the same compound?
A: 3020 nM

Q: What about the GI50 (BT-549 breast) of the same compound?
A: 5440 nM

Q: What about the TGI (BT-549 breast) of the same compound?
A: > 100000 nM

Q: What about the GI50 (CAKI-1 renal) of the same compound?
A: 1820 nM

Q: And the TGI (CAKI-1 renal)?
A: 6200 nM

Q: And the GI50 (CCRF-CEM leukemia)?
A: 6500 nM

Q: And the TGI (CCRF-CEM leukemia)?
A: > 100000 nM

Q: And the GI50 (COLO 205 colon)?
A: 1150 nM

Q: What about the TGI (COLO 205 colon) of the same compound?
A: 2500 nM

Q: What about the GI50 (DU-145 prostate) of the same compound?
A: 411 nM

Q: And the TGI (DU-145 prostate)?
A: 2330 nM

Q: And the GI50 (EKVX NSCLC)?
A: 2040 nM

Q: What about the TGI (EKVX NSCLC) of the same compound?
A: 5580 nM

Q: What about the GI50 (HCC-2998 colon) of the same compound?
A: 1180 nM

Q: And the TGI (HCC-2998 colon)?
A: 2550 nM

Q: What about the GI50 (HCT-116 colon) of the same compound?
A: 1680 nM

Q: And the TGI (HCT-116 colon)?
A: 4840 nM

Q: And the GI50 (HCT-15 colon)?
A: 1350 nM

Q: And the TGI (HCT-15 colon)?
A: 6430 nM

Q: And the GI50 (HL-60(TB) leukemia)?
A: 507 nM

Q: What about the TGI (HL-60(TB) leukemia) of the same compound?
A: 74600 nM

Q: What about the GI50 (HOP-62 NSCLC) of the same compound?
A: 1480 nM

Q: And the TGI (HOP-62 NSCLC)?
A: 3720 nM

Q: And the GI50 (HOP-92 NSCLC)?
A: 1900 nM

Q: What about the TGI (HOP-92 NSCLC) of the same compound?
A: 4810 nM

Q: What about the GI50 (HS 578T breast) of the same compound?
A: 3010 nM

Q: What about the TGI (HS 578T breast) of the same compound?
A: 9190 nM

Q: What about the GI50 (HT29 colon) of the same compound?
A: 737 nM

Q: What about the TGI (HT29 colon) of the same compound?
A: 2670 nM

Q: What about the GI50 (IGROV1 ovarian) of the same compound?
A: 4080 nM

Q: What about the TGI (IGROV1 ovarian) of the same compound?
A: > 100000 nM

Q: And the GI50 (K-562 leukemia)?
A: 2580 nM

Q: And the TGI (K-562 leukemia)?
A: > 100000 nM

Q: And the GI50 (KM12 colon)?
A: 1590 nM

Q: What about the TGI (KM12 colon) of the same compound?
A: 4720 nM

Q: And the GI50 (MCF7 breast)?
A: 673 nM

Q: And the TGI (MCF7 breast)?
A: 7370 nM

Q: What about the GI50 (MDA-MB-231 breast) of the same compound?
A: 1760 nM

Q: And the TGI (MDA-MB-231 breast)?
A: 5760 nM

Q: And the GI50 (MDA-MB-435)?
A: 1810 nM

Q: And the TGI (MDA-MB-435)?
A: 3770 nM

Q: And the GI50 (MOLT-4 leukemia)?
A: 3180 nM

Q: And the TGI (MOLT-4 leukemia)?
A: > 100000 nM

Q: What about the GI50 (NCI-H226 lung) of the same compound?
A: > 100000 nM

Q: What about the TGI (NCI-H226 lung) of the same compound?
A: > 100000 nM

Q: What about the GI50 (NCI-H460 lung) of the same compound?
A: 513 nM

Q: What about the TGI (NCI-H460 lung) of the same compound?
A: 2070 nM

Q: What about the GI50 (NCI/ADR-RES ovarian) of the same compound?
A: 1430 nM

Q: And the TGI (NCI/ADR-RES ovarian)?
A: 6210 nM

Q: What about the GI50 (OVCAR-3 ovarian) of the same compound?
A: 1530 nM

Q: And the TGI (OVCAR-3 ovarian)?
A: 3100 nM

Q: What about the GI50 (OVCAR-4 ovarian) of the same compound?
A: 2150 nM

Q: What about the TGI (OVCAR-4 ovarian) of the same compound?
A: 7320 nM

Q: And the GI50 (OVCAR-5 ovarian)?
A: 2290 nM

Q: What about the TGI (OVCAR-5 ovarian) of the same compound?
A: 6770 nM

Q: And the GI50 (OVCAR-8 ovarian)?
A: 1410 nM

Q: What about the TGI (OVCAR-8 ovarian) of the same compound?
A: 3870 nM

Q: And the GI50 (PC-3 prostate)?
A: 1750 nM

Q: And the TGI (PC-3 prostate)?
A: 4390 nM

Q: And the GI50 (RPMI-8226 leukemia)?
A: 2200 nM

Q: What about the TGI (RPMI-8226 leukemia) of the same compound?
A: 10000 nM

Q: And the GI50 (RXF 393 renal)?
A: 1210 nM

Q: What about the TGI (RXF 393 renal) of the same compound?
A: 2550 nM

Q: And the GI50 (SF-268 CNS)?
A: 1810 nM

Q: What about the TGI (SF-268 CNS) of the same compound?
A: 5210 nM

Q: What about the GI50 (SF-295 CNS) of the same compound?
A: 2210 nM

Q: What about the TGI (SF-295 CNS) of the same compound?
A: 5630 nM

Q: What about the GI50 (SF-539 CNS) of the same compound?
A: 1970 nM

Q: What about the TGI (SF-539 CNS) of the same compound?
A: 5120 nM

Q: And the GI50 (SK-MEL-2 melanoma)?
A: 4460 nM

Q: And the TGI (SK-MEL-2 melanoma)?
A: > 100000 nM

Q: And the GI50 (SK-MEL-28 melanoma)?
A: 2010 nM

Q: And the TGI (SK-MEL-28 melanoma)?
A: 3810 nM

Q: And the GI50 (SK-OV-3 ovarian)?
A: 2190 nM

Q: And the TGI (SK-OV-3 ovarian)?
A: 5130 nM

Q: What about the GI50 (SNB-19 CNS) of the same compound?
A: 1580 nM

Q: What about the TGI (SNB-19 CNS) of the same compound?
A: 6600 nM

Q: What about the GI50 (SNB-75 CNS) of the same compound?
A: 7550 nM

Q: And the TGI (SNB-75 CNS)?
A: > 100000 nM

Q: And the GI50 (SR leukemia)?
A: 2170 nM

Q: And the TGI (SR leukemia)?
A: > 100000 nM

Q: And the GI50 (T-47D breast)?
A: 1860 nM

Q: What about the TGI (T-47D breast) of the same compound?
A: 5990 nM

Q: What about the GI50 (TK-10 renal) of the same compound?
A: 2130 nM

Q: What about the TGI (TK-10 renal) of the same compound?
A: 5260 nM

Q: And the GI50 (U251 CNS)?
A: 984 nM

Q: And the TGI (U251 CNS)?
A: 2590 nM

Q: What about the GI50 (UACC-257 melanoma) of the same compound?
A: 2110 nM

Q: And the TGI (UACC-257 melanoma)?
A: 4230 nM

Q: And the GI50 (UACC-62 melanoma)?
A: 2470 nM

Q: And the TGI (UACC-62 melanoma)?
A: 8120 nM

Q: What about the GI50 (UO-31 renal) of the same compound?
A: 1730 nM

Q: And the TGI (UO-31 renal)?
A: 4200 nM
